In US20060009433A1, “Neuroprotective spirostenol pharmaceutical compositions” (priority 2003, published 2006):
“Also recorded” adds a separate entry of the source.

Key:
NT2 cells [1] = test: NT2 cell differentiation, phase-contrast morphology; format: cell-based, human; conditions: 25 μM; 3, 6 and 12 days (comparators 6 days)
NT2 cells [2] = test: BrdU assay, NT2 cell proliferation; format: cell-based, human
NT2 cells [3] = test: LDH and MTT assays, NT2 cell viability; conditions: LDH and MTT; 25-50 μM; 3-day treatment
rat PC12 neuronal cells = test: MTT assay, Aβ1-42-induced cytotoxicity in PC12 cells (Example I); conditions: MTT; for neuroprotective effect against Aβ-induced neurotoxicity: Aβ1-42

SMILES | effect on NT2 cell morphology (differentiation) (NT2 cells [1]) | NT2 cell proliferation at 25 μM (NT2 cells [2]; 25 μM) | NT2 cell proliferation at 50 μM (NT2 cells [2]) | cytotoxicity at high concentrations (NT2 cells [3]) | PC12 cell viability, steroid alone at 100 μM (rat PC12 neuronal cells; 100 μM steroid) | neuroprotective effect against Aβ-induced neurotoxicity (rat PC12 neuronal cells) | PC12 cell viability, steroid alone (rat PC12 neuronal cells; absence of Aβ)
CC(C)CC[C@H](O)[C@@H](C)[C@H]1CC[C@H]2[C@@H]3CC=C4C[C@@H](O)CC[C@]4(C)[C@H]3CC[C@]12C [22S-hydroxycholesterol, 5-cholesten-3β, 22S-diol] | could not be replicated | significantly inhibited | significantly inhibited | cytotoxic | neurotoxic | failed to protect; also recorded: inactive | –
CC(=O)[C@H]1CC[C@H]2[C@@H]3CC=C4C[C@@H](O)CC[C@]4(C)[C@H]3CC[C@]12C [pregnenolone, 5-pregnen-3β-ol-20-one] | – | – | significantly inhibited | cytotoxic | – | could not be replicated | toxic to the cells
